Measured values taken from patent US20200000087A1, “COMPOSITIONS FOR APPLICATION TO AERIAL PARTS OF PLANTS” (EXOSECT LIMITED, priority 2017, published 2020).
Where two headings read alike, the source gives them in different places.

Experiments:
[1] = tested on: German cockroach, Blattella germanica; conditions: cited from earlier work
[2] = Azoxystrobin retention on maize seed after Heubach mechanical stress (GC-ECD); format: physicochemical
Method: • Test item type and 1. Polyethylene Entostat (W3800) containing 499 mg/g contents: Azoxystrobin fungicide. • 2. Carnauba Entostat (W3738) containing 435 mg/g Azoxystrobin fungicide. • Test item rate: When using a commercial standard biological efficacy in maize is observed at […] seed. W3800 and W3738 were applied at […] of that commercial standard a.s. rate Table 1. • Application interval: Single application at the start of the study • Supplier: Entostat, Exosect, UK • Azoxystrobin, Albaugh, USA. • Storage: Pesticide cabinet in formulation laboratory, Exosect
The independent factors were, dry powder seed treatment formulation type (W3800 and W3738) and Azoxystrobin application rate (Low, Medium, and High). Residues of the active ingredient Azoxystrobin recovered from maize before and after mechanical stress were quantified. Each treatment will be replicated ten times. Work involving the Heubach Dustmeter was conducted according to know standard procedures.
Seeds were equilibrated in incubator 308 at 20° C.±2° C. and at 50%±10% relative humidity for at least 48 hours prior to testing.
Treatments were weighed into sterile 1 L Duran bottles along with 500 g of maize seeds. The treatments were homogenized for 30 seconds by gently agitating using the Stuart Rotator with MIX2040 attachment. 50 maize seeds were removed from each batch, weighed, and placed in a bioassay jar for pre mechanical stress quality control analysis. One 100 g sample were removed from each batch.
The 100 g sample was mechanically stressed in the Heubach Dustmeter (Heubach GMbh, Heubachstrasse7, 38685 Langelsheim), following the procedures outlined in TDRF311. Work involving the Heubach Dustmeter was conducted between 23° C. and 29° C. and 30% and 70% relative humidity in Bioassay Room 2. After the cycle, treated seeds were removed from the rotating drum. 50 maize seeds were removed from each batch, weighed, and placed in a bioassay jar for post mechanical stress quality control analysis.
Azoxystrobin present on the seed samples taken before and after Heubach mechanical stress were analysed using gas chromatography with electron capture detector (GC-ECD). From these values the percentage change of Azoxystrobin a.s. retained by the seeds mechanical stress was calculated.
Percentage Azoxystrobin retained on maize seed after mechanical stress was modelled using R (version 3.3.1). After testing for normality using a Shapiro-Wilk normality test, ANOVA was used to analyse the data linear model. Percentage Azoxystrobin retention was modelled as a function of the factors formulations type (W3800 and W3738), Azoxystrobin application rate (0.006259, 0.06259 and 0.6259 g a.s./kg seed) and interactions between the factors. Formulation W3800 at its lowest application (0.006259 g a.s./kg seed) was used as the control.

[3] = tested on: Zymoseptoria tritici (formerly Septoria tritici); experiment: Translaminar activity of Azoxystrobin formulated in Entostat against Z. tritici on wheat; format: in vivo; conditions: control of Zymoseptoria tritici; compared with conventional formulation
From the text: • Test item type and Entostat SC contains in 300 g/L Entostat (Polyethylene contents: wax variant), with the wax component formulated with 81.8 g/L Azoxystrobin (8.18% w/w Azoxystrobin in SC) • Test item rate: The Entostat formulation was applied at a rate 2.68 L/ha delivering 219 g a.i/ha (which delivers Azoxystar's maximum label amount of active ingredient). • Reference item type Azoxystar—SC Strobilurin fungicide containing […] and contents: of Azoxystrobin (22.9 w/w Azoxystrobin in SC). • Reference item rate: Azoxystar was applied at the maximum recommended label rate (0.88 L/ha delivering 219 g a.i/ha) • Application interval: Once at wheat growth stage 12
200 square plastic pots (7×7×8 cm) were filled with J. Arthur Bower No. 1 seedling compost and drenched with tap water. Into each pot six spring wheat (T. aestivum cv. KWS Kielder) seeds were double sown. The pots were placed within four Secret Jardin 120 growth tents in a fully randomised block design of 40 blocks (5 pots per block). All plants were grown under a light, temperature and relative humidity (RH) regime of 16:8 light/dark, 20° C./17° C. and 80% RH. Pots were watered via capillary matting with tap water when required. No additional nutrients were supplied throughout the study. Fourteen days after sowing the six plants in each pot were reduced to three of uniform size. […]

[4] = tested on: Triticum aestivum (Spring wheat) variety KWS Alderon; experiment: Translaminar (herbicidal) activity of Quizalofop-p-ethyl formulations sprayed on wheat, EPPO PP1/135 assessment; format: in vivo; conditions: control of volunteer wheat; compared with conventional formulation
[5] = Loading of acetamiprid dry powder seed treatment on seeds; format: physicochemical
[6] = cited from earlier work

Q: With CC1(C)[C@H](C(=O)O[C@H](C#N)c2cccc(Oc3ccccc3)c2)[C@@H]1/C=C(\Cl)C(F)(F)F (racemic) [lambda-cyhalothrin] as the molecule, how does the knock down period ([1]; Emulsifiable Concentrate (EC)) read?
A: 10.33 min

Q: What about the knock down period ([1]; microencapsulated formulation) of the same molecule?
A: 17.16 min

Q: For CO/C=C(/C(=O)OC)c1ccccc1Oc1cc(Oc2ccccc2C#N)ncn1 [Azoxystrobin, Methyl (2E)-2-(2-{[6-(2-cyanophenoxy)pyrimidin-4-yl]oxy}phenyl)-3-methoxyacrylate], which “less Azoxystrobin retained compared to the lowest application rate” value ([2]; high application rate (0.6259 g a.s./Kg)) is on record?
A: 21%

Q: What about the “Azoxystrobin retained of original application” value ([2]; high application rate (0.6259 g a.s./Kg), across formulations) of the same molecule?
A: 41%

Q: And the “Azoxystrobin retained of original application” value ([2]; lowest application rate (0.006259 g a.s./Kg), across formulations W3800 and W3738)?
A: 62%

Q: And the “less Azoxystrobin retained compared to the lowest application rate” value ([2]; medium application rate (0.06259 g a.s./Kg))?
A: 7%

Q: And the “Azoxystrobin retained of original application” value ([2]; medium application rate (0.06259 g a.s./Kg), across formulations)?
A: 55%

Q: What about the “dose of Azoxystrobin which remains on the surface of the maize” value ([2]; medium dose, after mechanical stress) of the same molecule?
A: 0.0346 mg·s/kg

Q: And the “effectiveness of Entostat matrix encapsulated formulation as foliar spray” value [3]?
A: as effective as a conventional Suspension Concentrate (SC) formulation

Q: Which “effectiveness of Entostat matrix encapsulated formulation as foliar spray” value [4] does the source give for CCOC(=O)[C@@H](C)Oc1ccc(Oc2cnc3cc(Cl)ccc3n2)cc1 [Quizalofop-p-ethyl, ethyl (2R)-2-[4-(6-chloroquinoxalin-2-yl)oxyphenoxy]propanoate] here?
A: as effective as a conventional Suspension Concentrate (SC) formulation

Q: Which “relative percentage loading on seeds” value ([5]; after 10 fold decrease in powder application) does the source give for C/C(=N\C#N)N(C)Cc1ccc(Cl)nc1 [acetamiprid] here?
A: 80%

Q: What about the “relative percentage loading on seeds” value ([5]; before 10 fold decrease in powder application) of the same molecule?
A: 52%

Q: For CCOP(=S)(OCC)Oc1nc(Cl)c(Cl)cc1Cl [chlorpyrifos], which “time to release 50% of the insecticide” value ([6]; encapsulated formulation, sodium alginate and starch microspheres) is on record?
A: 5 days

Q: And the “time to release 50% of chlorpyrifos” value ([6]; free chlorpyrifos)?
A: 1 days
